# Laboratory results as given in patent US7851474B2, “Dipiperazinyl ketones and related analogues” (Neurogen Corporation, priority 2005, dated 2010).
# Target: T1, chimeric human H3 receptor (Homo sapiens, UniProt Q9Y5N1, E19D)
# T1 construct: made in house; host or cells: Sf9 insect cells (baculovirus infection); P2 membrane preparation
# Test: Chimeric human H3 receptor GTP binding assay (agonist-stimulated GTP-gamma35S binding, Example 7)
# Format: biochemical
# Details: assay of Example 7; "*" in Ki of Table II; read-out: Ki
# Method in brief: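 Sf9 membranes co-expressing the chimeric receptor and heterotrimeric G-protein subunits, 35 μg protein per tube, in pH 7.4 Tris buffer with 10 μM GDP. Test compounds at 10^−10 to 10^−6 M with 1 μM histamine, 60 min at room temperature. Filter-bound GTP-gamma^35S read by scintillation; IC50 from non-linear regression of dose-response curves.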
# T1 sequence (Q9Y5N1 with tags, fused parts or gaps E19D): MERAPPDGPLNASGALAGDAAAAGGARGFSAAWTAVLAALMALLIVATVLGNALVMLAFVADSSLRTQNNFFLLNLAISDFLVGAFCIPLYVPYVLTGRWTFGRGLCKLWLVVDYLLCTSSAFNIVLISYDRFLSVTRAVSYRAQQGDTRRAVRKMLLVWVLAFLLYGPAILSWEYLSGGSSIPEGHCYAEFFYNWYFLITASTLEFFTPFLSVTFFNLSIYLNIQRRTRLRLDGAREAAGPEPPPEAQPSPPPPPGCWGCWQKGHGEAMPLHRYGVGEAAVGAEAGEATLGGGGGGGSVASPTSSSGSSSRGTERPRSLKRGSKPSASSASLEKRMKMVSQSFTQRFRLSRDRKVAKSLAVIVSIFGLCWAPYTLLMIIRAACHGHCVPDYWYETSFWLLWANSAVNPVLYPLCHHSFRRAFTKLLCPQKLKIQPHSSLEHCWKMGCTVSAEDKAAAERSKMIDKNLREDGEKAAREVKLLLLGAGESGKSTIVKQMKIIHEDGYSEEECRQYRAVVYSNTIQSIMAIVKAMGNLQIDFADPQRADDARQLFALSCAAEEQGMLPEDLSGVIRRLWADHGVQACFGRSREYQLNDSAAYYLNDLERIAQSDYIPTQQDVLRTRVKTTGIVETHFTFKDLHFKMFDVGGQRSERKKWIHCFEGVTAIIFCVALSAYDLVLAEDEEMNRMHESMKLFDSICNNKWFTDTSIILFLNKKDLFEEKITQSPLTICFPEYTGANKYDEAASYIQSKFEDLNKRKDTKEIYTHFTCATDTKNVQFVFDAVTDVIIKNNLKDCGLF
row,Ki [nM],SMILES
1,< 1000,"COc1cccc(C(=O)NC2CCN(CC(=O)N3CCN(C4CCC4)CC3)C2)c1 (centres unmarked) [Compound 1236, N-{1-[2-(4-cyclobutylpiperazin-1-yl)-2-oxoethyl]pyrrolidin-3-yl}-3-methoxybenzamide]"
2,< 1000,"COc1ccc(C(=O)NC2CCN(CC(=O)N3CCN(C4CCC4)CC3)C2)cc1 (centres unmarked) [Compound 1237, N-{1-[2-(4-cyclobutylpiperazin-1-yl)-2-oxoethyl]pyrrolidin-3-yl}-4-methoxybenzamide]"
3,< 1000,"CCOc1cccc(C(=O)NC2CCN(CC(=O)N3CCN(C4CCC4)CC3)C2)c1 (centres unmarked) [Compound 1239, N-{1-[2-(4-cyclobutylpiperazin-1-yl)-2-oxoethyl]pyrrolidin-3-yl}-3-ethoxybenzamide]"
4,< 1000,"CSc1ccc(C(=O)NC2CCN(CC(=O)N3CCN(C4CCC4)CC3)C2)cc1 (centres unmarked) [Compound 1241, N-{1-[2-(4-cyclobutylpiperazin-1-yl)-2-oxoethyl]pyrrolidin-3-yl}-4-(methylthio)benzamide]"
5,< 1000,"CCSc1ccc(C(=O)NC2CCN(CC(=O)N3CCN(C4CCC4)CC3)C2)cc1 (centres unmarked) [Compound 1242, N-{1-[2-(4-cyclobutylpiperazin-1-yl)-2-oxoethyl]pyrrolidin-3-yl}-4-(ethylthio)benzamide]"
6,< 1000,"COc1ccc(C(=O)NC2CCN(CC(=O)N3CCN(C4CCC4)CC3)C2)cc1F (centres unmarked) [Compound 1243, N-{1-[2-(4-cyclobutylpiperazin-1-yl)-2-oxoethyl]pyrrolidin-3-yl}-3-fluoro-4-methoxybenzamide]"
7,< 1000,"O=C(NC1CCN(CC(=O)N2CCN(C3CCC3)CC2)C1)c1ccc(Oc2ccccc2)cc1 (centres unmarked) [Compound 1244, N-{1-[2-(4-cyclobutylpiperazin-1-yl)-2-oxoethyl]pyrrolidin-3-yl}-4-phenoxybenzamide]"
8,< 1000,"CC(C)CC(=O)NC1CCN(CC(=O)N2CCN(C3CCC3)CC2)C1 (centres unmarked) [Compound 1246, N-{1-[2-(4-cyclobutylpiperazin-1-yl)-2-oxoethyl]pyrrolidin-3-yl}-3-methylbutanamide]"
9,< 1000,"CC(C)CCC(=O)NC1CCN(CC(=O)N2CCN(C3CCC3)CC2)C1 (centres unmarked) [Compound 1247, N-{1-[2-(4-cyclobutylpiperazin-1-yl)-2-oxoethyl]pyrrolidin-3-yl}-4-methylpentanamide]"
10,< 1000,"O=C(CC1CCCC1)NC1CCN(CC(=O)N2CCN(C3CCC3)CC2)C1 (centres unmarked) [Compound 1248, N-{1-[2-(4-cyclobutylpiperazin-1-yl)-2-oxoethyl]pyrrolidin-3-yl}-2-cyclopentylacetamide]"
11,< 1000,"O=C(CC1CCCCC1)NC1CCN(CC(=O)N2CCN(C3CCC3)CC2)C1 (centres unmarked) [Compound 1249, N-{1-[2-(4-cyclobutylpiperazin-1-yl)-2-oxoethyl]pyrrolidin-3-yl}-2-cyclohexylacetamide]"
12,< 1000,"O=C(CCC1CCCC1)NC1CCN(CC(=O)N2CCN(C3CCC3)CC2)C1 (centres unmarked) [Compound 1250, N-{1-[2-(4-cyclobutylpiperazin-1-yl)-2-oxoethyl]pyrrolidin-3-yl}-3-cyclopentylpropanamide]"
13,< 1000,"CCC(C)CC(=O)NC1CCN(CC(=O)N2CCN(C3CCC3)CC2)C1 (centres unmarked) [Compound 1251, N-{1-[2-(4-cyclobutylpiperazin-1-yl)-2-oxoethyl]pyrrolidin-3-yl}-3-methylpentanamide]"
14,< 1000,"CC(C)(C)CC(=O)NC1CCN(CC(=O)N2CCN(C3CCC3)CC2)C1 (centres unmarked) [Compound 1252, N-{1-[2-(4-cyclobutylpiperazin-1-yl)-2-oxoethyl]pyrrolidin-3-yl}-3,3-dimethylbutanamide]"
15,< 1000,"O=C(NC1CCN(CC(=O)N2CCN(C3CCC3)CC2)C1)c1ccccc1 (centres unmarked) [Compound 1253, N-{1-[2-(4-cyclobutylpiperazin-1-yl)-2-oxoethyl]pyrrolidin-3-yl}benzamide]"
16,< 1000,"O=C(NC1CCN(CC(=O)N2CCN(C3CCC3)CC2)C1)c1ccc(-c2ccccc2)cc1 (centres unmarked) [Compound 1254, N-{1-[2-(4-cyclobutylpiperazin-1-yl)-2-oxoethyl]pyrrolidin-3-yl}biphenyl-4-carboxamide]"
17,< 1000,"O=C(NC1CCN(CC(=O)N2CCN(C3CCC3)CC2)C1)C1CC2CCC1C2 (centres unmarked) [Compound 1255, N-{1-[2-(4-cyclobutylpiperazin-1-yl)-2-oxoethyl]pyrrolidin-3-yl}bicyclo[2.2.1]heptane-2-carboxamide]"
18,< 1000,"O=C(NC1CCN(CC(=O)N2CCN(C3CCC3)CC2)C1)C1CCCCC1 (centres unmarked) [Compound 1256, N-{1-[2-(4-cyclobutylpiperazin-1-yl)-2-oxoethyl]pyrrolidin-3-yl} cyclohexanecarboxamide]"
19,< 1000,"CCCCC(=O)NC1CCN(CC(=O)N2CCN(C3CCC3)CC2)C1 (centres unmarked) [Compound 1257, N-{1-[2-(4-cyclobutylpiperazin-1-yl)-2-oxoethyl]pyrrolidin-3-yl}pentanamide]"
20,< 1000,"CC(=O)NC1CCN(CC(=O)N2CCN(C3CCCC3)CC2)C1 (centres unmarked) [Compound 1258, N-{1-[2-(4-cyclopentylpiperazin-1-yl)-2-oxoethyl]pyrrolidin-3-yl}acetamide]"
21,< 1000,"CC(=O)NC1CCN(CC(=O)N2CCN(C(C)C)CC2)C1 (centres unmarked) [Compound 1259, N-{1-[2-(4-isopropylpiperazin-1-yl)-2-oxoethyl]pyrrolidin-3-yl}acetamide]"
22,< 1000,"C=CCNC(=O)c1cccc(N2CCN(CC(=O)N3CCN(C4CCC4)CC3)CC2)c1 [Compound 1260, N-allyl-3-{4-[2-(4-cyclobutylpiperazin-1-yl)-2-oxoethyl]piperazin-1-yl}benzamide]"
23,< 1000,"C=CCNC(=O)c1ccc(N2CCN(CC(=O)N3CCN(C4CCC4)CC3)CC2)cc1 [Compound 1261, N-allyl-4-{4-[2-(4-cyclobutylpiperazin-1-yl)-2-oxoethyl]piperazin-1-yl}benzamide]"
24,< 1000,"C=CCNC(=O)c1ccc(N2CCN(CC(=O)N3CCN(C4CCC4)CC3)CC2)nc1 [Compound 1262, N-allyl-6-{4-[2-(4-cyclobutylpiperazin-1-yl)-2-oxoethyl]piperazin-1-yl}nicotinamide]"
25,< 1000,"CCCCNC(=O)c1cccc(N2CCN(CC(=O)N3CCN(C4CCC4)CC3)CC2)c1 [Compound 1263, N-butyl-3-{4-[2-(4-cyclobutylpiperazin-1-yl)-2-oxoethyl]piperazin-1-yl}benzamide]"
26,< 1000,"CCCCNC(=O)c1ccc(N2CCN(CC(=O)N3CCN(C4CCC4)CC3)CC2)cc1 [Compound 1264, N-butyl-4-{4-[2-(4-cyclobutylpiperazin-1-yl)-2-oxoethyl]piperazin-1-yl}benzamide]"
27,< 1000,"CCCCNC(=O)c1ccc(N2CCN(CC(=O)N3CCN(C4CCC4)CC3)CC2)nc1 [Compound 1265, N-butyl-6-{4-[2-(4-cyclobutylpiperazin-1-yl)-2-oxoethyl]piperazin-1-yl}nicotinamide]"
28,< 1000,"O=C(NC1CCC1)c1cccc(N2CCN(CC(=O)N3CCN(C4CCC4)CC3)CC2)c1 [Compound 1266, N-cyclobutyl-3-{4-[2-(4-cyclobutylpiperazin-1-yl)-2-oxoethyl]piperazin-1-yl}benzamide]"
29,< 1000,"O=C(NC1CCC1)c1ccc(N2CCN(CC(=O)N3CCN(C4CCC4)CC3)CC2)nc1 [Compound 1268, N-cyclobutyl-6-{4-[2-(4-cyclobutylpiperazin-1-yl)-2-oxoethyl]piperazin-1-yl}nicotinamide]"
